Literature values, collected in patent EP3721896B1, “EPIDERMAL GROWTH FACTOR (EGF) AND VARIANTS THEREOF FOR TREATING OR PREVENTING INFLAMMATORY DEMYELINATING DISORDERS” (Scalabrino, Giuseppe, priority 2019, dated 2023).

Tested on: experimental autoimmune encephalomyelitis (EAE)
Details: administered alone; Lewis rat; from EP1870106A2

GHRP-6
Effect on course of EAE as compared to placebo: no effect was observed
